Here are results for three molecules from paper PMC5700983 (Nature Communications, 2017).

Where two headings read alike, the source gives them in different places.

One assay addresses Ps_PtxB (Stutzerimonas stutzeri, UniProt O69052). The assay can be described thus: biochemical. It is filed as binding, Pseudomonas stutzeri WM88.
The target of assay [1] is T1, Te_PtxB Y208F (Trichodesmium erythraeum, UniProt Q119I9, Y234F).
In assay [2] the test system is E. coli strain devoid of its native phosphate acquisition systems. Particulars: cited from earlier work.
Assay [3] has as its target T1, Te_PtxB Y208F. Briefly: biochemical.
Assay [4] deals with E. coli strain devoid of its native phosphate acquisition systems. The following applies: cited from earlier work. This is another data set of the same source.
Another assay deals with Te_PtxB Y208A (Trichodesmium erythraeum, UniProt Q119I9, Y234A). Briefly: biochemical.
The target of assay [5] is T2, HtxB (Stutzerimonas stutzeri, UniProt O69061). Particulars: pH 7.4.
For assay [6], the target named is T3, Te_PtxB (Trichodesmium erythraeum, UniProt Q119I9). The assay can be described thus: biochemical. It is filed as binding, Trichodesmium erythraeum IMS101.
The test system of assay [7] is Te_PtxB, Pm_PhnD and Ps_PtxB. The class given is binding.
For a further assay, the target named is Ec_PhnD. The following applies: cited from earlier work.
In the next assay the target is Pm_PhnD (Prochlorococcus marinus, UniProt A3PC74). The assay can be described thus: biochemical. It is filed as binding, Prochlorococcus marinus MIT9301.
Assay [8] has as its target T2, HtxB. Briefly: biochemical.
The next assay concerns the target Pm_PtxB. The following applies: cited from earlier work.
For assay [9], the target named is T3, Te_PtxB. The assay can be described thus: biochemical.

T3 sequence (Q119I9 28-298 limits assumed): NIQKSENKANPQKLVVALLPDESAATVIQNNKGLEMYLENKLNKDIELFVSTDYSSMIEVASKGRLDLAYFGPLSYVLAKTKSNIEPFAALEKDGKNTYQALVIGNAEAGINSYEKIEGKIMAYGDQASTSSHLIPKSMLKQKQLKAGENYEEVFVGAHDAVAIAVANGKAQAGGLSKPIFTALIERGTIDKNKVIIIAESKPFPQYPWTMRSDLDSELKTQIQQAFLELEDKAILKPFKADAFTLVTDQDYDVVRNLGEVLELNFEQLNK
Chain of Pm_PhnD (A3PC74 25-297): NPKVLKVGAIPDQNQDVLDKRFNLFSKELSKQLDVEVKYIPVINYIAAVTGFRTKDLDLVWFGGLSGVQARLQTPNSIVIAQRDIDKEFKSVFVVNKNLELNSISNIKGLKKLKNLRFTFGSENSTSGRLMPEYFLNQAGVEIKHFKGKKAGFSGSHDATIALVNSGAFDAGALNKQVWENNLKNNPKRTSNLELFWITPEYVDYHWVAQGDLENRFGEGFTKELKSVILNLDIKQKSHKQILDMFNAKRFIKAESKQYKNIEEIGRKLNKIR
T1 sequence (Q119I9 28-298 Y234F limits assumed): as the sequence (Q119I9 28-298 limits assumed) above, with Y207F counted along it
Chain of Ps_PtxB (O69052 24-287): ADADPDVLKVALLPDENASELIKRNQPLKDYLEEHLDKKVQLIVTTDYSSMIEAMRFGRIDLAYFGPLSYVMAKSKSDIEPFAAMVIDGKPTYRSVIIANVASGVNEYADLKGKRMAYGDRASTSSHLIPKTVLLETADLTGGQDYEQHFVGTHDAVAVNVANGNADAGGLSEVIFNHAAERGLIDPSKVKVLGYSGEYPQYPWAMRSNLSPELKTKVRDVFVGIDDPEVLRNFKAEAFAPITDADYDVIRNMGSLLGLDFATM
Chain of Te_PtxB Y208A (Q119I9 28-298 Y234A limits assumed): as the sequence (Q119I9 28-298 limits assumed) above, with Y207A counted along it
T2 sequence (O69061 34-298): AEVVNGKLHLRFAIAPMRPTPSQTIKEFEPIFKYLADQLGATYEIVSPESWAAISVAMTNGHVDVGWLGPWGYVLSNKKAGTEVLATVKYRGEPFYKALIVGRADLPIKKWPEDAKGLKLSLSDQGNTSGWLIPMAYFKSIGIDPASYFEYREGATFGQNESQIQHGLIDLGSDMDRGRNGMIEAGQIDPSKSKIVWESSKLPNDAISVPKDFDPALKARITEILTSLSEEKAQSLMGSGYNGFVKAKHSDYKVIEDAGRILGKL

Regarding `O=P(O)(O)O` [Phosphate], the values for the Kd on Ps_PtxB, at Te_PtxB Y208F [3] and on Te_PtxB Y208A were 159 ± 36 µM, more than 60000 µM and 51.3 ± 1.76 µM, respectively. Moreover, on Te_PtxB Y208F [1], the “binding to Te_PtxB Y208F, result in words” value is on record as “essentially abolished”. For the same molecule, the “growth of E. coli strain with PtxD and Ralstonia sp. 4506 PtxABC” value in assay [2] was “grew”. In addition, the “growth of E. coli strain with HtxBCDE” value in [4] is “did not allow growth”. Besides, the “K d, HtxB” value at HtxB [5] is listed as “NBD”.

As to `NCCP(=O)(O)O` [2-Aminoethylphosphonate, 2-aminoethylphosphonate], the “K d, Te_PtxB” value at Te_PtxB [6] (pH 7.4) is reported as “NBD”. Moreover, at Ps_PtxB (pH 7.4), the “K d, Ps_PtxB” value was “NBD”. Moreover, the “binding, result in words” value in assay [7] is “None of the proteins showed any evidence of binding”. Moreover, at Ec_PhnD, the “binding affinity for Ec_PhnD, in words” value was “low nanomolar”. Moreover, on Pm_PhnD (pH 7.4), the “K d, Pm_PhnD” value was “NBD”.

For `O=[PH](O)O` [Phosphite, phosphite], the “higher binding affinity for phosphite than phosphate and phosphonates, Te_PtxB” value on Te_PtxB [6] is 2–4 orders of magnitude. Besides, the Kd is 0.17 ± 0.07 µM at Te_PtxB [6] (K d, Te_PtxB); approximately 0.17 µM at Te_PtxB [6] (Kd, PtxB (approximate, authors' response)); 0.17 µM at Te_PtxB [6] (Kd, Te_PtxB WT (as quoted in peer review file)); 0.24 ± 0.03 µM on Ps_PtxB; 0.05 to 0.24 µM in assay [7] (read-out: K d range over Te_PtxB, Pm_PhnD and Ps_PtxB); more than 10000 µM on HtxB [8]. Moreover, the Kd on Te_PtxB Y208F [3] (K d, Te_PtxB Y208F) came out at 295 ± 4.64 µM; on Te_PtxB Y208F [3] (Kd, Te_PtxB Y208F (as quoted in peer review file)), 295 µM; at Te_PtxB [9], 0.289 ± 0.064 µM; on Pm_PhnD it was 0.051 ± 0.004 µM; on Te_PtxB Y208A (K d, Te_PtxB Y208A), 134 ± 6.4 µM; on Te_PtxB Y208A (Kd, Te_PtxB Y208A (as quoted in peer review file)) it was 135 µM. Besides, the “binding affinity for Pm_PtxB, in words” value at Pm_PtxB is reported as “low micromolar”. Further, the “growth of E. coli strain with PtxD and Ralstonia sp. 4506 PtxABC” value in assay [2] is recorded as “grew”. In addition, the “growth of E. coli strain with HtxBCDE” value in [4] is “did allow growth”. Also, at Pm_PhnD, the “higher binding affinity for phosphite than phosphate and phosphonates, Pm_PhnD” value is given as 2–4 orders of magnitude.
